Measured values taken from patent US20100056524A1, “Compound” (priority 2008, published 2010).
Where a name gives a salt, the structure may show the parent alone. Read-outs that look alike come from different tables or passages of the source.

Assays:
IKKe = target: T1, IKKe (Homo sapiens, UniProt Q14164); assay: IKKe protein kinase assay; type: biochemical; conditions: for remaining activity at 10 µM: 10 μM compound; for residual kinase activity IKKe: 1 μm compound; for remaining activity at 1 µM: 1 μM compound
T1 construct: All protein kinases were of human origin and encoded full length proteins, unless indicated otherwise; His6; made in house; host or cells: insect Sf21 cells
T1 sequence (Q14164 1-716): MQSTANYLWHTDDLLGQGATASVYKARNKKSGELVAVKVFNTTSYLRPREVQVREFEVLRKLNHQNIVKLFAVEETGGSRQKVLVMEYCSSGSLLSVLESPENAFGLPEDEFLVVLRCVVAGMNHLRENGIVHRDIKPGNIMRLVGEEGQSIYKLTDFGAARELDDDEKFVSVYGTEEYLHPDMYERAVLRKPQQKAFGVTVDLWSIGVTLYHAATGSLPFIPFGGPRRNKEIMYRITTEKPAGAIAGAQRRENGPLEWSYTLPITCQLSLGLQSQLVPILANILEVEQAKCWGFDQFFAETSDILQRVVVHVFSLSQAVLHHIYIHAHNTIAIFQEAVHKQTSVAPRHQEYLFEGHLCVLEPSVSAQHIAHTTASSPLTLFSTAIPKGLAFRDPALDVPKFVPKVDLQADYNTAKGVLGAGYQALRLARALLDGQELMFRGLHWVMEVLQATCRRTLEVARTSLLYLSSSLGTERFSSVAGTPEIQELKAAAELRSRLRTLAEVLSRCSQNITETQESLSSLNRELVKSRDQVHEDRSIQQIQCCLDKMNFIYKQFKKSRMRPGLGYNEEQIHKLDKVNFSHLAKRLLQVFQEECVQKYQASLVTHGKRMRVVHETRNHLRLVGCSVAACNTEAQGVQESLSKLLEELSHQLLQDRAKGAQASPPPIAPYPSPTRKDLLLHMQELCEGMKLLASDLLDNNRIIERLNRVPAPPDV
Text: (§1) All protein kinases were of human origin and encoded full length proteins, unless indicated otherwise. They were either expressed as glutathione S-transferase (GST) fusion proteins in Escherichia Coli or as hexahistidine (His6)-tagged proteins in insect Sf21 cells. GST fusion proteins were purified by affinity chromatography on glutathione-Sepharose, and His6-tagged proteins on nickel/nitriloacetate-agarose. The procedures for expressing some of the protein kinases used herein have been detailed previously.^8,9 The following sections outline the DNA vectors synthesised and the procedures used to express and purifying protein kinases that have not been reported previously.
The following kinases were expressed in Sf21 cells: Aurora B and Aurora C, extra-cellular signal-regulated kinase 8 (ERK8), microtubule affinity regulating kinase 3 (MARK3), protein kinase Bα[118-480][S473D], protein kinase Bβ (PKBβ[120-481][S474D], 3-phosphoinositide-dependent protein kinase-1 [52-556]
(§2) All assays (25.5 μl) were carried out at room temperature (21° C.) and were linear with respect to time and enzyme concentration under the conditions used. Assays were performed for 30 min using Multidrop Micro reagent dispensers (Thermo Electron Corporation, Waltham, Mass. 02454, USA) in a 96-well format. The concentration of magnesium acetate in the assays was 10 mM and the [γ-33P] ATP (800 cpm/pmol) was used at 5, 20 or 50 μM as indicated, in order to be at or below the Km for ATP for each enzyme. Protein kinases assayed at 5 μM ATP were: —ERK1, ERK8, PKBα, MARK3, Aurora C. Protein kinases assayed at 20 μM ATP were: —JNK1, PDK1, CHK1, CHK2, CDK2 and Aurora B. Protein kinases assayed at 50 μM ATP were: —MNK2, IKKepsilon and TBK1.
(§3) The assays were initiated with MgATP, stopped by addition of 5 μl of 0.5 M orthophosphoric acid and spotted on to P81 filterplates using a unifilter harvester (PerkinElmer, Boston, Mass. 02118, USA). The IC50 values of inhibitors were determined after carrying out assays at 10 different concentrations of each compound.
(§4) Unless stated otherwise, enzymes were diluted in 50 mM Tris/HCl pH 7.5, 0.1 mM EGTA, 1 mg/ml BSA, 0.1% (v/v) 2-mercaptoethanol and assayed in 50 mM Tris/HCl pH 7.5, 0.1 mM EGTA, 0.1% (v/v) 2-mercaptoethanol.

CK1 = CK1 protein kinase assay; type: biochemical, human; conditions: for residual kinase activity: CK1
Text: as §1, §2, §3, §4

[1] = read-out: residual kinase activity IKKe
[2] = IKKe, 50 μM ATP, read-out: residual kinase activity

SMILES: O=C(NCCCNc1nc(Nc2cccc(F)c2)ncc1Br)C1CCC1 [Compound A, cyclobutanecarboxylic acid {3-[5-bromo-2-(3-fluoro-phenylamino)-pyrimidin-4-ylamino]-propyl}-amide, reference compound]
- remaining activity at 10 µM (IKKe; [1]): 3%
- residual kinase activity IKKe (IKKe): 13%
- residual kinase activity CK1 (CK1; 10 μM compound): 50%
- residual kinase activity CK1 (CK1; 1 μm compound): 91%

SMILES: O=C(NCCCNc1nc(Nc2cccc(F)c2)ncc1C1CC1)C1CCC1 [Example 23, Cyclobutanecarboxylic acid {3-[5-cyclopropyl-2-(3-fluoro-phenylamino)-pyrimidin-4-ylamino]-propyl}-amide]
- remaining activity at 10 µM (IKKe; [1]): 5%
- residual kinase activity IKKe (IKKe): 15%
- remaining activity at 1 µM (IKKe; [2]): 15%
- remaining activity at 10 µM (IKKe; [2]): 5%
- residual kinase activity CK1 (CK1; 10 μM compound): 64%
- residual kinase activity CK1 (CK1; 1 μm compound): 93%
- residual kinase activity (CK1; 1 μM compound): 93%
- residual kinase activity (CK1; 10 μM compound): 64%

SMILES: O=C(NCCCNc1nc(Nc2cccc(N3CCCC3=O)c2)ncc1C1CC1)c1cccs1 [Example 47, Thiophene-2-carboxylic acid (3-{5-cyclopropyl-2-[3-(2-oxo-pyrrolidin-1-yl)-phenylamino]-pyrimidin-4-ylamino}-propyl)-amide. Hydrochloride salt]
- remaining activity at 1 µM (IKKe; [2]): 14%
- remaining activity at 10 µM (IKKe; [2]): 6%
- residual kinase activity (CK1; 1 μM compound): 102%
- residual kinase activity (CK1; 10 μM compound): 106%

SMILES: O=C(NCCCNc1nc(Nc2cccnc2)ncc1C1CC1)c1cccs1 [Example 50, Thiophene-2-carboxylic acid {3-[5-cyclopropyl-2-(pyridin-3-ylamino)-pyrimidin-4-ylamino]-propyl}-amide]
- remaining activity at 1 µM (IKKe; [2]): 28%
- remaining activity at 10 µM (IKKe; [2]): 7%
- residual kinase activity (CK1; 1 μM compound): 107%
- residual kinase activity (CK1; 10 μM compound): 82%
